How the values were obtained:
Experiment in all cases: Bliss excess, mean over the matrix (fraction); higher = more synergy
[1] = test system: HH (T-Cell Non-Hodgkin's Lymphoma)
How it was run: (§1)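 Bliss excess equals the observed combination effect minus the expected value EA + EB − EA·EB, where EA and EB are the effects of each agent alone. Combination Emax is the second-highest inhibition within the matrix. Inhibition was scaled from CellTiter-Glo 2.0 luminescence, with 0 set by vehicle wells and 1 by blank wells, after 72 hours of two-drug dosing of cells plated in 1536-well plates.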

[2] = test system: ALL-PO (B-Lymphoblastic Leukemia)
How it was run: as §1

LOXIMVI (Melanoma) = test system: LOXIMVI (Melanoma)
How it was run: as §1

[3] = test system: HuH-7 (Hepatocellular Carcinoma)
How it was run: as §1

[4] = test system: LCLC-97TM1 (Non-Small Cell Lung Carcinoma)
How it was run: as §1

[5] = test system: FTC-133 (Thyroid Gland Carcinoma)
How it was run: as §1

[6] = test system: TGBC1TKB (Biliary Tract Carcinoma)
How it was run: as §1

[7] = test system: OVCAR-5 (Ovarian Carcinoma)
How it was run: as §1

BE2-M17 (Neuroblastoma) = test system: BE2-M17 (Neuroblastoma)
How it was run: as §1

[8] = test system: SAS (Oral Cavity Carcinoma)
How it was run: as §1

NCI-H2722 (Mesothelioma) = test system: NCI-H2722 (Mesothelioma)
How it was run: as §1

[9] = test system: Hs-746T (Gastric Carcinoma)
How it was run: as §1

[10] = test system: NUGC-4 (Gastric Carcinoma)
How it was run: as §1

[11] = test system: LNZTA3WT4 (Low Grade Glioma)
How it was run: as §1

[12] = test system: KMRC-20 (Kidney Carcinoma)
How it was run: as §1

[13] = test system: WSU-NHL (B-Cell Non-Hodgkin's Lymphoma)
How it was run: as §1

[14] = test system: HeLa (Cervical Carcinoma)
How it was run: as §1

[15] = test system: HuCCT1 (Biliary Tract Carcinoma)
How it was run: as §1

BPH-1 (Non-Cancerous) = test system: BPH-1 (Non-Cancerous)
How it was run: as §1

[16] = test system: L-428 (Hodgkin's Lymphoma)
How it was run: as §1

With `CN(CCO)CC[C@H](CSc1ccccc1)Nc1ccc(S(=O)(=O)NC(=O)c2ccc(N3CCC([C@@H](O)c4ccccc4-c4ccc(Cl)cc4)CC3)cc2)cc1S(=O)(=O)C(F)(F)F` [AZD4320] + Cn1cnc2c(F)c(Nc3ccc(Br)cc3Cl)c(C(=O)NOCCO)cc21 [Selumetinib] (first compound max 1 µM, 7x7, partner max 3 µM) the Bliss excess [1] was -0.0255, the Bliss excess [2] was 0.0571 and the Bliss excess (LOXIMVI (Melanoma)) was 0.0352. For the same compound, the Bliss excess [3] was 0.0069, the Bliss excess [4] was 0.0523 and the Bliss excess [5] was -0.0023. The Bliss excess [6] was -0.012, the Bliss excess [7] was -0.0282 and the Bliss excess (BE2-M17 (Neuroblastoma)) was 0.0929. It also gave a Bliss excess [8] of 0.043, a Bliss excess (NCI-H2722 (Mesothelioma)) of -0.011 and a Bliss excess [9] of 0.0402. It also gave a Bliss excess [10] of 0.0784, a Bliss excess [11] of -0.0656 and a Bliss excess [12] of 0.0022. For the same compound, the Bliss excess [13] was -0.0491, the Bliss excess [14] was -0.0092 and the Bliss excess [15] was 0.0309. It also gave a Bliss excess (BPH-1 (Non-Cancerous)) of 0.0021 and a Bliss excess [16] of 0.0143.

`COc1nnc2ccc(N3CCC(c4ccc(OCCN5CCN(C)C(=O)[C@H]5C)cc4)CC3)nn12` [AZD5153] + C=CCn1c(=O)c2cnc(Nc3ccc(N4CCN(C)CC4)cc3)nc2n1-c1cccc(C(C)(C)O)n1 [AZD1775] (first compound max 1 µM, partner max 1 µM) gave a Bliss excess [1] of -0.0442, a Bliss excess [2] of -0.0198 and a Bliss excess (LOXIMVI (Melanoma)) of -0.0494. It also gave a Bliss excess [3] of 0.0129, a Bliss excess [4] of -0.0845 and a Bliss excess [5] of -0.0099. It also gave a Bliss excess [6] of 0.015, a Bliss excess [7] of -0.0591 and a Bliss excess (BE2-M17 (Neuroblastoma)) of 0.0026. It also gave a Bliss excess [8] of -0.0302, a Bliss excess (NCI-H2722 (Mesothelioma)) of 0.0139 and a Bliss excess [9] of -0.0556. The Bliss excess [10] was -0.0478, the Bliss excess [11] was -0.0356 and the Bliss excess [12] was -0.0446. For the same compound, the Bliss excess [13] was -0.0255, the Bliss excess [14] was -0.072 and the Bliss excess [15] was -0.0778. For the same compound, the Bliss excess (BPH-1 (Non-Cancerous)) was 0.0246 and the Bliss excess [16] was -0.0411.

For `COc1nnc2ccc(N3CCC(c4ccc(OCCN5CCN(C)C(=O)[C@H]5C)cc4)CC3)nn12` [AZD5153] + CC1(C)CCC(CN2CCN(c3ccc(C(=O)NS(=O)(=O)c4ccc(NCC5CCOCC5)c([N+](=O)[O-])c4)c(Oc4cnc5[nH]ccc5c4)c3)CC2)=C(c2ccc(Cl)cc2)C1 [Venetoclax] (first compound max 1 µM, 7x7, partner max 1 µM), the Bliss excess [1] was -0.065, the Bliss excess [2] was 0.058 and the Bliss excess (LOXIMVI (Melanoma)) was -0.0687. For the same compound, the Bliss excess [3] was -0.0987, the Bliss excess [4] was -0.0277 and the Bliss excess [5] was -0.0745. The Bliss excess [6] was 0.0071, the Bliss excess [7] was -0.052 and the Bliss excess (BE2-M17 (Neuroblastoma)) was 0.0308. The Bliss excess [8] was -0.0325, the Bliss excess (NCI-H2722 (Mesothelioma)) was -0.0485 and the Bliss excess [9] was -0.119. It also gave a Bliss excess [10] of -0.0455, a Bliss excess [11] of -0.0571 and a Bliss excess [12] of -0.0096. The Bliss excess [13] was 0.0355, the Bliss excess [14] was -0.0574 and the Bliss excess [15] was -0.0517. For the same compound, the Bliss excess (BPH-1 (Non-Cancerous)) was -0.0574 and the Bliss excess [16] was -0.082.

`COc1nnc2ccc(N3CCC(c4ccc(OCCN5CCN(C)C(=O)[C@H]5C)cc4)CC3)nn12` [AZD5153] + CCN(CCO)CCCOc1ccc2c(Nc3cc(CC(=O)Nc4cccc(F)c4)[nH]n3)ncnc2c1 [AZD2811] (first compound max 1 µM, 7x7, partner max 1 µM) showed a Bliss excess [1] of 0.0055, a Bliss excess [2] of -0.0134 and a Bliss excess (LOXIMVI (Melanoma)) of -0.0129. The Bliss excess [3] was -0.051, the Bliss excess [4] was -0.0325 and the Bliss excess [5] was -0.0014. It also gave a Bliss excess [6] of 0.0017, a Bliss excess [7] of -0.0781 and a Bliss excess (BE2-M17 (Neuroblastoma)) of 0.102. The Bliss excess [8] was -0.0499, the Bliss excess (NCI-H2722 (Mesothelioma)) was -0.0263 and the Bliss excess [9] was -0.058. The Bliss excess [10] was -0.0508, the Bliss excess [11] was -0.0415 and the Bliss excess [12] was -0.148. For the same compound, the Bliss excess [13] was -0.0807, the Bliss excess [14] was -0.0457 and the Bliss excess [15] was -0.0331. It also gave a Bliss excess (BPH-1 (Non-Cancerous)) of -0.0252 and a Bliss excess [16] of 0.0085.

With `COc1nnc2ccc(N3CCC(c4ccc(OCCN5CCN(C)C(=O)[C@H]5C)cc4)CC3)nn12` [AZD5153] + C[C@@H]1COCCN1C2=NC(=NC(=C2)C3(CC3)[S@](=N)(=O)C)C4=C5C=CNC5=NC=C4 [AZD6738] (first compound max 1 µM, 7x7, partner max 10 µM) the Bliss excess [1] was -0.0324, the Bliss excess [2] was 0.0106 and the Bliss excess (LOXIMVI (Melanoma)) was -0.0413. For the same compound, the Bliss excess [3] was 0.113, the Bliss excess [4] was -0.033 and the Bliss excess [5] was 0.0856. It also gave a Bliss excess [6] of 0.0016, a Bliss excess [7] of -0.0276 and a Bliss excess (BE2-M17 (Neuroblastoma)) of 0.0293. It also gave a Bliss excess [8] of -0.0483, a Bliss excess (NCI-H2722 (Mesothelioma)) of 0.0378 and a Bliss excess [9] of 0.0429. It also gave a Bliss excess [10] of 0.0188, a Bliss excess [11] of 0.0648 and a Bliss excess [12] of 0.0821. For the same compound, the Bliss excess [13] was -0.0621, the Bliss excess [14] was -0.0406 and the Bliss excess [15] was -0.046. It also gave a Bliss excess (BPH-1 (Non-Cancerous)) of 0.0343 and a Bliss excess [16] of 0.009.

Work on `COc1nnc2ccc(N3CCC(c4ccc(OCCN5CCN(C)C(=O)[C@H]5C)cc4)CC3)nn12` [AZD5153] + Cc1c2c(nn1C)CSCc1cc(n(C)n1)CSc1cc(c3ccccc3c1)OCCCc1c(C(=O)O)n(C)c3c-2c(Cl)ccc13 [AZD5991] (first compound max 1 µM, 7x7, partner max 1 µM) yielded a Bliss excess [1] of 0.0776, a Bliss excess [2] of 0.0091 and a Bliss excess (LOXIMVI (Melanoma)) of 0.0393. The Bliss excess [3] was 0.0546, the Bliss excess [4] was -0.017 and the Bliss excess [5] was -0.0112. It also gave a Bliss excess [6] of 0.0069, a Bliss excess [7] of -0.043 and a Bliss excess (BE2-M17 (Neuroblastoma)) of 0.0101. It also gave a Bliss excess [8] of -0.0191, a Bliss excess (NCI-H2722 (Mesothelioma)) of -0.016 and a Bliss excess [9] of -0.0244. For the same compound, the Bliss excess [10] was 0.0081, the Bliss excess [11] was 0.0112 and the Bliss excess [12] was -0.0135. It also gave a Bliss excess [13] of 0.01, a Bliss excess [14] of 0.0151 and a Bliss excess [15] of -0.0543. For the same compound, the Bliss excess (BPH-1 (Non-Cancerous)) was -0.0093 and the Bliss excess [16] was -0.023.

Work on `COc1nnc2ccc(N3CCC(c4ccc(OCCN5CCN(C)C(=O)[C@H]5C)cc4)CC3)nn12` [AZD5153] + Cn1cnc2c(F)c(Nc3ccc(Br)cc3Cl)c(C(=O)NOCCO)cc21 [Selumetinib] (first compound max 1 µM, 7x7, partner max 10 µM) yielded a Bliss excess [1] of -0.0817, a Bliss excess [2] of -0.0054 and a Bliss excess (LOXIMVI (Melanoma)) of -0.0679. For the same compound, the Bliss excess [3] was 0.006, the Bliss excess [4] was -0.0694 and the Bliss excess [5] was -0.0539. The Bliss excess [6] was 0.0517, the Bliss excess [7] was -0.0429 and the Bliss excess (BE2-M17 (Neuroblastoma)) was 0.0139. It also gave a Bliss excess [8] of 0.0163, a Bliss excess (NCI-H2722 (Mesothelioma)) of -0.0597 and a Bliss excess [9] of -0.0227. The Bliss excess [10] was 0.0186, the Bliss excess [11] was -0.143 and the Bliss excess [12] was -0.08. It also gave a Bliss excess [13] of 0.0023, a Bliss excess [14] of -0.0409 and a Bliss excess [15] of 0.0453. For the same compound, the Bliss excess (BPH-1 (Non-Cancerous)) was -0.0385 and the Bliss excess [16] was -0.0409.
